The values that follow come from patent US20170247326A1, “Substituted Pyrrolidine Carboxamide Compounds” (EPIZYME, INC., priority 2014, published 2017).

T1 sequence (Q9NRG4 whole entry): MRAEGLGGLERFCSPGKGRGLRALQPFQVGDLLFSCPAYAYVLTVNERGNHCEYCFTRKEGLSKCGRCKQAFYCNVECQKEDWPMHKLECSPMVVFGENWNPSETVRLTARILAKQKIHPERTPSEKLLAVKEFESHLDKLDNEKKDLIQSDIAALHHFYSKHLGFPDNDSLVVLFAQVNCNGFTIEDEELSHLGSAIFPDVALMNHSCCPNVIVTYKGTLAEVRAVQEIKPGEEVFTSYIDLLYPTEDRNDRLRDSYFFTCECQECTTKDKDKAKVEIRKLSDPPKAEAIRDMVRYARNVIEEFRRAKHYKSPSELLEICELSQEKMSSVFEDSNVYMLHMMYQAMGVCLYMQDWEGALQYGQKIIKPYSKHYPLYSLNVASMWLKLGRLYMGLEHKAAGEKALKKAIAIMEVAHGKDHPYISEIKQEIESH

The first assay addresses T1, SMYD2 (Homo sapiens, UniProt Q9NRG4).
T1 construct: Full length SMYD2 (NP_064582.2) was cloned; His6 (N, cleaved yes); FLAG (N); made in house; host or cells: Sf9 insect cells
Description: SMYD2 biochemical assay (3H-SAM, biotinylated peptide substrate, Flashplate). The conditions noted are these: Table 3; average of n = 1 to n = 50; read-out: SMYD2 Biochem IC50. The method, boiled down: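 Full-length His/FLAG-tagged SMYD2 (tag removed, Sf9-expressed) at 1.5 nM was preincubated with compound for 30 min at room temperature in Bicine pH 7.6 buffer with 2% DMSO. Reaction used 10 nM 3H-SAM and 60 nM biotinylated peptide, stopped with 600 uM cold SAM. Streptavidin-captured 3H-peptide counted; IC50 from 3- or 4-parameter fit.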
Consider `CC(C)N1C[C@H](C)[C@H](NC(=O)c2ccc3c(c2)NC(=O)CO3)C1` (single isomer, unassigned) [compound 32, (+)-cis-N-[4-methyl-1-(propan-2-yl)pyrrolidin-3-yl]-3-oxo-3,4-dihydro-2H-1,4-benzoxazine-6-carboxamide], for which the IC50 (usually the point on the concentration scale where inhibition reaches its midpoint) was > 50 µM. For `CC(C)N1C[C@H](C)[C@H](NC(=O)c2cc(C3CC3)cnn2)C1` (stereo in doubt) [compound 98, rel-5-cyclopropyl-N-[(3S,4S)-4-methyl-1-(propan-2-yl)pyrrolidin-3-yl]pyridazine-3-carboxamide], the IC50 was found to be 2.09 µM. On to `CC(C)N1C[C@@H](C)[C@@H](NC(=O)c2cc(C3CC3)cnn2)C1` (stereo in doubt) [compound 101, rel-5-cyclopropyl-N-[(3R,4R)-4-methyl-1-(propan-2-yl)pyrrolidin-3-yl]pyridazine-3-carboxamide], for which the IC50 amounted to 0.245 µM. Still for that read-out and setting: the same measure for `C[C@H]1CN(Cc2ccc(OCc3ccccc3)cc2)C[C@H]1NC(=O)c1cn(C2CC2)nn1` (stereo in doubt) [compound 106, (±)-cis-N-(1-{[4-(benzyloxy)phenyl]methyl}-4-methylpyrrolidin-3-yl)-1-cyclopropyl-1H-1,2,3-triazole-4-carboxamide]: 0.46 µM; for `CC(C)N1C[C@@H](C)[C@@H](NC(=O)c2cc(C3CC3)cnn2)C1` (stereo in doubt) [compound 110, (±)-cis-5-cyclopropyl-N-[4-methyl-1-(propan-2-yl)pyrrolidin-3-yl]pyridazine-3-carboxamide]: 0.424 µM; for `CC(C)N1C[C@@H](C)[C@@H](NC(=O)c2cn(C3CC3)cn2)C1` (stereo in doubt) [compound 121, (±)-cis-1-cyclopropyl-N-(1-isopropyl-4-methylpyrrolidin-3-yl)-1H-imidazole-4-carboxamide]: 2.2 µM. As to `CC(C)N1CCC(C(=O)Nc2cc(O)c3c(c2)OCC(=O)N3)C1` (stereo not drawn) [compound 87, N-(5-hydroxy-3-oxo-3,4-dihydro-2H-1,4-benzoxazin-7-yl)-1-(propan-2-yl)pyrrolidine-3-carboxamide], the IC50 was > 50 µM. Consider `CC(C)N1CCC(NC(=O)c2cc(C3CC3)cnn2)C1` (stereo not drawn) [compound 95, 5-cyclopropyl-N-[1-(propan-2-yl)pyrrolidin-3-yl]pyridazine-3-carboxamide], for which the IC50 is 6.07 µM. Still for that read-out and setting: to `CC(C)N1CC(NC(=O)c2cc(C3CC3)cnn2)CC1C` (stereo not drawn) [compound 120, 5-cyclopropyl-N-(1-isopropyl-5-methylpyrrolidin-3-yl)pyridazine-3-carboxamide] belongs 11.5 µM; to `CN(C)C1CCC(NC(=O)c2cn(C3CC3)nn2)C1` (stereo not drawn) [compound 122, 1-cyclopropyl-N-[3-(dimethylamino)cyclopentyl]-1H-1,2,3-triazole-4-carboxamide], > 50 µM. Regarding “(±)-cis-N-(1-((2-aminoethyl)sulfonyl)-4-methylpyrrolidin-3-yl)-5-cyclopmpylpyridazine-3-carboxamide [compound 113]”, the IC50 was > 50 µM.

Still in this assay, the particulars now being: Table 4; average of n = 1 to n = 50; read-out: SMYD2 Biochem IC50.
On to `CC(C)N1C[C@H](C)[C@H](NC(=O)c2cn(C3CC3)cn2)C1` (stereo in doubt) [compound 123, rac-1-cyclopropyl-N-((3R,4R)-1-isopropyl-4-methylpyrrolidin-3-yl)-1H-imidazole-4-carboxamide], for which the IC50 was determined as 2.2 µM. Consider `C[C@@H]1CN(Cc2ccc(OCc3ccccc3)cc2)C[C@@H]1NC(=O)c1cn(C2CC2)nn1` (stereo in doubt) [compound 131, rac-N-((3R,4R)-1-(4-(benzyloxy)benzyl)-4-methylpyrrolidin-3-yl)-1-cyclopropyl-1H-1,2,3-triazole-4-carboxamide], for which the IC50 worked out at 0.46 µM.

Turning to `CC(C)N1CC(NC(=O)c2cc(C3CC3)cnn2)CC1C` (stereo not drawn) [compound 125, 5-cyclopropyl-N-(1-isopropyl-5-methylpyrrolidin-3-yl)pyridazine-3-carboxamide], the IC50 was determined as 11.5 µM.

The subject of another assay is esophageal, liver and breast cancer cell lines.
Experiment: not given
The following applies: dose-dependent; Nguyen et al. J Biol Chem. 2015; cited from earlier work.
Consider `Cc1cn(CCN2CCN(c3ccccc3-c3cc(C#N)cc(C(=O)NCCCN4CCCC4)c3)CC2)c2ccccc12` [LLY-507], for which the “proliferation of several esophageal, liver and breast cancer cell lines” value was “inhibited the proliferation”.
